Assay results as given in patent US20180140602A1, “COMBINATION OF CHIMERIC ANTIGEN RECEPTOR THERAPY AND AMINO PYRIMIDINE DERIVATIVES” (Novartis AG, priority 2015, published 2018).
“Also recorded” adds a separate entry of the source.

Legend:
[1] = test system: Jeko-1 cells; assay: MTT assay, sensitivity to ibrutinib; assay type: cell-based; conditions: Homo sapiens; Jeko-1, MTT assay; read-out: IC50, inhibition of proliferation
[2] = test system: Jeko-1 cells; assay: Sensitivity to ibrutinib by reduction of bioluminescence; assay type: cell-based, human; conditions: 0.1 nM to 10 μM
[3] = test system: mantle cell lymphoma; conditions: MCL patients; cited from earlier work
[4] = patients; cited from earlier work
[5] = test system: CART19 cells; conditions: supra-physiologic concentrations
[6] = target: T1, ITK (Homo sapiens, UniProt Q08881); assay: ITK phosphorylation (pITK-Y180) in stimulated CART19 cells; assay type: cell-based
T1 sequence (Q08881 1-620): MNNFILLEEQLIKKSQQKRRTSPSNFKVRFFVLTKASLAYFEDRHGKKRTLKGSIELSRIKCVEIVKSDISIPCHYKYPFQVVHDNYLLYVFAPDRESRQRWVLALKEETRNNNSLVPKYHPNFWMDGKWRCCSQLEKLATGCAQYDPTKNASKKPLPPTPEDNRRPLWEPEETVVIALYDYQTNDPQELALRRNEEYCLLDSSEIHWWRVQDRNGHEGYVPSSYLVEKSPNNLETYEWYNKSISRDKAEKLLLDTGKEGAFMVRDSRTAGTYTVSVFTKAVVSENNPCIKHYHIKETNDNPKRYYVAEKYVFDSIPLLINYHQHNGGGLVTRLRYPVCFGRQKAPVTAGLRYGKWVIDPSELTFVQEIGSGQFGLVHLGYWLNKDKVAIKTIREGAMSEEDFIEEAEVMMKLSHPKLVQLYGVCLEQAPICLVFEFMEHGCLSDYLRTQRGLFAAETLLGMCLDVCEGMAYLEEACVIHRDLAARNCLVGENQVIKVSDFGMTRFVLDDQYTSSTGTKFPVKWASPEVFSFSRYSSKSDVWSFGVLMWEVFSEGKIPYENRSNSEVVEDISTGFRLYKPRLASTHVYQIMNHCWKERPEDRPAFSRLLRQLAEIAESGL
Text: See Dubovsky et al. Blood 122.15(2013):2539-49.

[7] = test system: MCL; conditions: MCL treated with ibrutinib monotherapy; cited from earlier work
[8] = test system: RL cells; assay: Sensitivity to ibrutinib by reduction of bioluminescence; assay type: cell-based, human; conditions: 0.1 nM to 10 μM
[9] = test system: MCL-RL cells; assay: MCL-RL systemic xenograft model in NSG mice; assay type: in vivo
[10] = test system: RL cells; assay: MTT assay, sensitivity to ibrutinib; assay type: cell-based; conditions: Homo sapiens, read-out: IC50, inhibition of proliferation
[11] = test system: Mino cells; assay: MTT assay, sensitivity to ibrutinib; assay type: cell-based; conditions: Homo sapiens, read-out: IC50, inhibition of proliferation
[12] = test system: CART19 cells; assay: level of circulating CART19 cells under ibrutinib treatment (Example 42); assay type: in vivo; conditions: data shown in Example 42

SMILES: C=CC(=O)N1CCC[C@@H](n2nc(-c3ccc(Oc4ccccc4)cc3)c3c(N)ncnc32)C1 [ibrutinib, 1-[(3R)-3-[4-Amino-3-(4-phenoxyphenyl)-1H-pyrazolo[3,4-d]pyrimidin-1-yl]piperidin-1-yl]prop-2-en-1-one]
- IC50 [1]: ≤ 10 µM
- sensitivity to ibrutinib (reduction of bioluminescence) [2]: resistant to ibrutinib treatment
- duration of median response [3]: 17.5 months
- patients who do not respond [3]: about 30%
- mean peak concentration in serum [4]: 100 to 150 ng/mL
- effect on CART19 cell functions [5]: inhibition of CART19 cell functions
- phosphorylated ITK (pITK-Y180) ([6]; non-specific stimulation via the TCR): reduction in phosphorylated ITK
- ITK activation ([6]; specific stimulation via the CAR): did not lead to diminished ITK activation
- median duration of response [7]: about 17.5 months
- sensitivity to ibrutinib (reduction of bioluminescence) [8]: sensitive to ibrutinib treatment in a dose-dependent manner
- median overall survival ([9]; 25 mg/kg/day): 81 days
- median overall survival ([9]; 125 mg/kg/day): 100 days
- effect on tumor burden / tumor growth (bioluminescence) ([9]; MCL-RL engrafted NSG mice): dose-related sensitivity; also recorded: modestly delayed tumor growth at early time points
- IC50 [10]: 0.01 µM
- IC50 [11]: ≤ 10 µM
- level of circulating CART19 cells [12]: increases the level of circulating CART19 cells
